The test system of assay [1] is UCP2 expression in Rat Basophilic Leukemia cell (RBL). In words: Northern blot of UCP2 expression in RBL cells. In kind it is cell-based. More on the design: dose or concentration left out as unconfirmed. The source says:
(A) A tumor mast cell line, the Rat Basophilic Leukemia cell (RBL), is a model system for studies of immune system signal transduction. In the RBL cell, binding of an antigen to the IgE receptor on the cell surface results in the activation of phospholipase C-gamma (PLCg). This event leads to the activation of protein kinase C (PKC) and an increase in intracellular calcium which are required for degranulation and gene expression in RBL cells. Several drugs can mimic the intracellular events and degranulation occuring in this cell type in response to antigen activation of the IgE receptor. The inophore Ionomycin causes the release of calcium from intracellular calcium stores and the phorbol ester PMA is able to directly activate PKC. Both of these drugs are required to achieve maximal activation of RBL cells. In order to determine the expression level of UCP2 in RBL cells, these cells were treated with Ionomycin ([…]), PMA ([…]) or both drugs.

Assay [2] deals with UCP2 mRNA in macrophage RAW cells. In words: UCP2 mRNA in cultured macrophage RAW cells, northern normalized for actin. The note with it: macrophages treated with LPS. The format is cell-based, mouse. The text has this: (B) Bacterial lipopolysaccharide (LPS) regulates UCP2 mRNA in macrophages. Bacterial LPS is known to induce many of the features of infection, including fever. Thioglycolate elicited mouse macrophage (peritoneal exudate cells, PEC) have been studied for regulation of UCP2 mRNA by LPS. […] A study has also be made of UCP2 expression in cultured mouse macrophage RAW cells. These cells express UCP2. […] The LPS mediated decrease of UCP2 is not affected by indomethacin or by PGE2. All fo the macrophage northerns are normalized for actin expression and have been repeated at least once. […] The results are consistent with a role of UCP2 in immune function.

For assay [3], the system named is mitochondria isolated from yeast. In words: Respiratory rates in mitochondria isolated from yeast. In kind it is biochemical. The source says:
Respiratory rates have been measured in mitochondria isolated from yeast containing the empty pYeDP vector and the pUCP2 vector (Table 1). […] Addition of ADP stimulates respiration more in control mitochondria, again showing the UCP2 mitochondria are more uncoupled.

The subject of assay [4] is mitochondrial potential of transformed yeast. In words: Flow cytometry of mitochondrial membrane potential with DiOC6(3) in transformed yeast. In kind it is cell-based, Saccharomyces cerevisiae. The text has this: FIG. 2. Flow cytometry analysis of membrane potential following the expression of UCP2 in S. cerevisiae; comparison of wild-type UCP1 and non-active UCP1 mutants. The number of cells (counts, Y-axis) is represented on a logarithmic scale of 1024 channels. The X-axis is a logarithmic scale of fluorescence intensity. A shift of the curve towards the left indicates a decreased mitochondrial potential. The horizontal bar on the left indicates the position of cells treated with mCICCP, a chemical uncoupler. The expression of UCP2, UCP1 or UCPmut mRNA in recombinant yeast, as well as its absence in wild type yeast, was checked by Northern blots.
(§1) Yeast transfections and functional analysis using flow cytometry. The diploid yeast (Saccharomyces cerevisiae) strain W303 (a/α; ade2-10; his 3-11-15; leu2-2, 112; ura3-1; can1-100; try-Δ1) was used for expression of UCP2. The pYedP-UCP2 or UCPmut expression vectors were introduced into yeast by electroporation and transformants were selected for uracil […] as described by Bouillaud et al (EMBO J. 13:1990 (1994)). Expression of the UCP2, UCP1 or UCPmut under the control of the gal-cyc promoter was induced by galactose in the absence of glucose. Growth of yeast for flow cytometry analysis and measurement of mitochondrial membrane potential using the DiOC6(3) fluorescent probe (3,3′-dihexyloxacarbocyanine iodine, Molecular Probes, Eugene, Oreg.) are described by Bouillaud et al (EMBO J. 13:1990 (1994)).
The in vivo decrease of membrane potential associated with uncoupling of respiration was analyzed by flow cytometry of yeast labeled with the potential sensitive probe DiOC6(3) . […] In the case of UCP2, 2 peaks were observed, one equivalent to cells expressing UCP1 and a second peak corresponding to a very low mitochondrial potential. Mean fluorescence intensities were: empty vector, 65.5; UCPmut, 43.0; UCP1, 22.5; UCP2, 15.5 and UCP2+mCICCP, 0.4 (FIG. 2). Very similar results were obtained in two additional experiments.

The conditions of assay [5]: Roe et al, Metabolism 46:359 (1997); cited from earlier work.
The test system of assay [6] is UCP2 mRNA. In words: UCP2 mRNA levels in mouse tissues after treatment. In kind it is in vivo, Swiss mice. The text has this:
Regulation of UCP2 has been examined for factors that would regulate UCP1. In 11-week-old fed male Swiss mice, UCP2 mRNA was detected in BAT, WAT, thigh muscle and liver. […] Thus, UCP2 is regulated very differently than UCP1, which is induced by cold and β3 agonists.

In assay [7] the test system is yeast (Saccharomyces cerevisiae) strain W303. In words: Growth rate (instantaneous generation time) of transformed yeast after galactose induction. The format is cell-based. The note with it: liquid medium, galactose-induced expression; ±SD.
Source text: as §1
To test the hypothesis that UCP2 is an uncoupling protein, yeast were transfected with UCP2 in an expression vector as previously reported for UCP1 (Bouillaud et al, EMBO J. 13:1990 (1994)). Rates of growth in liquid medium of transformed yeast were measured in the presence of galactose, which induces expression. Instantaneous generation times were compared after induction of vector, UCP2, control (empty) and UCP1 expression vectors. […]

Where [8] appears, read: yeast carrying the expression vector, lower = decreased mitochondrial potential.

Consider ten molecules from patent publication US20030119775A1, “Respiration uncoupling protein” (DUKE UNIVERSITY, priority 1997, published 2003).

`C[C@H](CCC(=O)O)C[C@H](C)C[C@H](C)C(=O)/C=C(\O)[C@H](C)C[C@H](C)C/C=C/[C@@H](C)[C@@H](O)[C@@H](C)[C@@H](O)C[C@@H]1CC[C@@](C)([C@H]2CC[C@@](C)([C@@H](C)O)O2)O1` [Ionomycin]: the “Induction of UCP2 expression versus untreated control cells” value in assay [1] was ~4 fold.

As to `CCCCC[C@H](O)/C=C/[C@H]1[C@H](O)CC(=O)[C@@H]1C/C=C\CCCC(=O)O` [PGE2], the “Effect on the LPS mediated decrease of UCP2” value in assay [2] is “not affected”.

In the case of `N#CC(C#N)=NNc1ccc(OC(F)(F)F)cc1` [FCCP], the entries for the “Respiratory rate increase factor upon addition of uncoupler” value in assay [3] (control (pYeDP) mitochondria) and in assay [3] (pUCP2 mitochondria) were 7.1 and 4.3, respectively.

With `N#CC(C#N)=NNc1cccc(Cl)c1` [mCICCP], in assay [4] (UCP2-expressing yeast treated with mCICCP), the “Mean fluorescence intensity (DiOC6(3))” value is listed as 0.4.

For `COc1ccc2c(c1)c(CC(=O)O)c(C)n2C(=O)c1ccc(Cl)cc1` [indomethacin], the “Effect on the LPS mediated decrease of UCP2” value in assay [2] is listed as “not affected”. Also, the “Effect on increased O2 consumption associated with cachexia of malignancy” value in assay [5] is “attenuated”.

Regarding “leptin: leptin, shown to increase sympathetic outflow to brown fat”, the “Effect on UCP2 expression” value in assay [6] (2 μg, 2×/day for 4 days) was “failed to increased UCP2 expression”. Besides, the “Influence on UCP2 expression” value in assay [6] (general statement: in vitro or in vivo) is reported as “not to influence UCP2 expression”.

For the molecule `C[C@H](Cc1ccc2c(c1)OC(C(=O)[O-])(C(=O)[O-])O2)NC[C@H](O)c1cccc(Cl)c1.[Na+].[Na+]` [CL316,243], the “Effect on UCP2 mRNA levels” value in assay [6] (11-week-old fed male Swiss mice, BAT, WAT, thigh muscle and liver, treatment for 10 days) is given as “did not influence UCP2 mRNA levels”.

Consider `CCCCCCCCCCCCCC(=O)O[C@@H]1[C@@H](C)[C@@]2(O)[C@@H](C=C(CO)C[C@]3(O)C(=O)C(C)=C[C@@H]23)[C@@H]2C(C)(C)[C@]12OC(C)=O` [PMA], for which the “Induction of UCP2 expression versus untreated control cells” value in assay [1] is given as ~4 fold.

B1: UCP2: uncoupling protein-2, expressed in yeast from the pYedP-UCP2 expression vector (protein, UniProt P55851 1-309, looked up)
Dicarboxylate carrier SLC25A8: MVGFKATDVPPTATVKFLGAGTAACIADLITFPLDTAKVRLQIQGESQGPVRATASAQYRGVMGTILTMVRTEGPRSLYNGLVAGLQRQMSFASVRIGLYDSVKQFYTKGSEHASIGSRLLAGSTTGALAVAVAQPTDVVKVRFQAQARAGGGRRYQSTVNAYKTIAREEGFRGLWKGTSPNVARNAIVNCAELVTYDLIKDALLKANLMTDDLPCHFTSAFGAGFCTTVIASPVDVVKTRYMNSALGQYSSAGHCALTMLQKEGPRAFYKGFMPSFLRLGSWNVVMFVTYEQLKRALMAACTSREAPF
In turn, B1 returned an Instantaneous generation time in assay [7] of 260 ± 29 min. Also, the “Mean fluorescence intensity (DiOC6(3))” value in assay [4] (setting [8]) stood at 15.5.

B2: UCP1: uncoupling protein-1 of brown adipose tissue, expressed in yeast for comparison (protein, UniProt P25874 1-307, looked up)
Mitochondrial brown fat …: MGGLTASDVHPTLGVQLFSAGIAACLADVITFPLDTAKVRLQVQGECPTSSVIRYKGVLGTITAVVKTEGRMKLYSGLPAGLQRQISSASLRIGLYDTVQEFLTAGKETAPSLGSKILAGLTTGGVAVFIGQPTEVVKVRLQAQSHLHGIKPRYTGTYNAYRIIATTEGLTGLWKGTTPNLMRSVIINCTELVTYDLMKEAFVKNNILADDVPCHLVSALIAGFCATAMSSPVDVVKTRFINSPPGQYKSVPNCAMKVFTNEGPTAFFKGLVPSFLRLGSWNVIMFVCFEQLKRELSKSRQTMDCAT
Take B2: the Instantaneous generation time in assay [7] is 226 ± 10 min. The “Mean fluorescence intensity (DiOC6(3))” value in assay [4] (setting [8]) is recorded as 22.5.
